From ChEMBL document CHEMBL1201862, “PubChem BioAssay data set” (2004)
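All cell lines were grown in 96-well plates and treated with compound for 48 hours. GI50 = concentration required for 50% inhibition of growth.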 Calls of active or inactive are those of the source. No stated cut-off is given here; in the data, active = GI50 up to about 1.1 µM and inactive = higher.

Tests used:
Assay in all cases: DTP human tumour cell line panel, 48 h
HCT-116 = tested on: HCT-116
OVCAR-8 = tested on: OVCAR-8
SF-268 = tested on: SF-268
SNB-78 = tested on: SNB-78
DMS-273 = tested on: DMS-273
KM-20L2 = tested on: KM-20L2
ACHN = tested on: ACHN
SR = tested on: SR
HL-60 = tested on: HL-60
A549 = tested on: A549
COLO 205 = tested on: COLO 205
SNB-19 = tested on: SNB-19
M14 = tested on: M14
HT-29 = tested on: HT-29
NCI-H226 = tested on: NCI-H226
SK-MEL-5 = tested on: SK-MEL-5
RXF 393 = tested on: RXF 393
UO-31 = tested on: UO-31
UACC-257 = tested on: UACC-257
SK-MEL-2 = tested on: SK-MEL-2
HCC 2998 = tested on: HCC 2998
XF498 = tested on: XF498
SW-620 = tested on: SW-620
SF-539 = tested on: SF-539
NCI-H23 = tested on: NCI-H23
786-0 = tested on: 786-0
DLD-1 = tested on: DLD-1
RPMI-8226 = tested on: RPMI-8226
TK-10 = tested on: TK-10
A498 = tested on: A498
RXF 631 = tested on: RXF 631
IGROV-1 = tested on: IGROV-1
HOP-62 = tested on: HOP-62
K562 = tested on: K562
EKVX = tested on: EKVX
SF-295 = tested on: SF-295
SN12C = tested on: SN12C
SNB-75 = tested on: SNB-75
HOP-18 = tested on: HOP-18
LXFL 529 = tested on: LXFL 529
Malme-3M = tested on: Malme-3M
NCI-H460 = tested on: NCI-H460
OVCAR-3 = tested on: OVCAR-3
DMS-114 = tested on: DMS-114
M19-MEL = tested on: M19-MEL
U-251 = tested on: U-251
CAKI-1 = tested on: CAKI-1
OVCAR-4 = tested on: OVCAR-4
UACC-62 = tested on: UACC-62
SK-OV-3 = tested on: SK-OV-3
NCI-H522 = tested on: NCI-H522
OVCAR-5 = tested on: OVCAR-5
HCT-15 = tested on: HCT-15
MOLT-4 = tested on: MOLT-4
KM12 = tested on: KM12
HOP-92 = tested on: HOP-92
LOX IMVI = tested on: LOX IMVI
SK-MEL-28 = tested on: SK-MEL-28
CCRF-CEM = tested on: CCRF-CEM

C[n+]1c2ccccc2c(NC(CS)C(=O)O)c2ccccc21 (configuration not stated) was tested, and the GI50 (HCT-116) was 13.5 µM (inactive), the GI50 (OVCAR-8) was 19.4 µM (inactive) and the GI50 (SF-268) was 19.8 µM (inactive). For the same compound, the GI50 (SNB-78) was 45.2 µM (inactive), the GI50 (DMS-273) was 22.1 µM (inactive) and the GI50 (KM-20L2) was 29.4 µM (inactive). For the same compound, the GI50 (ACHN) was 36.5 µM (inactive), the GI50 (SR) was 16.4 µM (inactive) and the GI50 (HL-60) was 17.6 µM (inactive). For the same compound, the GI50 (A549) was 22.6 µM (inactive), the GI50 (COLO 205) was 30.1 µM (inactive) and the GI50 (SNB-19) was 40.6 µM (inactive). For the same compound, the GI50 (M14) was 27.5 µM (inactive), the GI50 (HT-29) was 28.9 µM (inactive) and the GI50 (NCI-H226) was 45 µM (inactive). The GI50 (SK-MEL-5) was 17.3 µM (inactive), the GI50 (RXF 393) was 22.3 µM (inactive) and the GI50 (UO-31) was 16.2 µM (inactive). For the same compound, the GI50 (UACC-257) was 33.7 µM (inactive), the GI50 (SK-MEL-2) was 28.2 µM (inactive) and the GI50 (HCC 2998) was 32.9 µM (inactive). The GI50 (XF498) was 18.4 µM (inactive), the GI50 (SW-620) was 39.3 µM (inactive) and the GI50 (SF-539) was 20.7 µM (inactive). For the same compound, the GI50 (NCI-H23) was 32 µM (inactive), the GI50 (786-0) was 24 µM (inactive) and the GI50 (DLD-1) was 23.1 µM (inactive). The GI50 (RPMI-8226) was 18.6 µM (inactive), the GI50 (TK-10) was 36.6 µM (inactive) and the GI50 (A498) was 15.6 µM (inactive). For the same compound, the GI50 (RXF 631) was 37.2 µM (inactive), the GI50 (IGROV-1) was 25.4 µM (inactive) and the GI50 (HOP-62) was 30.3 µM (inactive). For the same compound, the GI50 (K562) was 28.6 µM (inactive), the GI50 (EKVX) was 24.4 µM (inactive) and the GI50 (SF-295) was 19.9 µM (inactive). The GI50 (SN12C) was 52 µM (inactive), the GI50 (SNB-75) was 24.2 µM (inactive) and the GI50 (HOP-18) was 12 µM (inactive). The GI50 (LXFL 529) was 20.4 µM (inactive), the GI50 (Malme-3M) was 24.2 µM (inactive) and the GI50 (NCI-H460) was 29.8 µM (inactive). For the same compound, the GI50 (OVCAR-3) was 17.7 µM (inactive), the GI50 (DMS-114) was 29.2 µM (inactive) and the GI50 (M19-MEL) was 27.4 µM (inactive). For the same compound, the GI50 (U-251) was 24.5 µM (inactive), the GI50 (CAKI-1) was 28.5 µM (inactive) and the GI50 (OVCAR-4) was 29.8 µM (inactive). For the same compound, the GI50 (UACC-62) was 15.2 µM (inactive), the GI50 (SK-OV-3) was 23.3 µM (inactive) and the GI50 (NCI-H522) was 20.3 µM (inactive). For the same compound, the GI50 (OVCAR-5) was 74.1 µM (inactive), the GI50 (HCT-15) was 28.1 µM and the GI50 (MOLT-4) was 13.8 µM (inactive). The GI50 (KM12) was 18.6 µM (inactive) and the GI50 (HOP-92) was 20.2 µM (inactive).
In the case of CCOC(=O)/C(C)=C(/O)C(=O)OCC, the GI50 (HCT-116) is reported as > 100 µM (inactive), the GI50 (OVCAR-8) is reported as > 100 µM (inactive) and the GI50 (SF-268) is reported as > 100 µM (inactive). For the same compound, the GI50 (SNB-78) was > 100 µM (inactive), the GI50 (DMS-273) was > 100 µM (inactive) and the GI50 (ACHN) was > 100 µM (inactive). For the same compound, the GI50 (HL-60) was > 100 µM (inactive), the GI50 (A549) was > 100 µM (inactive) and the GI50 (COLO 205) was > 100 µM (inactive). The GI50 (SNB-19) was > 100 µM (inactive), the GI50 (M14) was > 100 µM (inactive) and the GI50 (HT-29) was > 100 µM (inactive). For the same compound, the GI50 (NCI-H226) was > 100 µM (inactive), the GI50 (SK-MEL-5) was > 100 µM (inactive) and the GI50 (RXF 393) was > 100 µM (inactive). The GI50 (UO-31) was > 100 µM (inactive), the GI50 (UACC-257) was > 100 µM (inactive) and the GI50 (SK-MEL-2) was > 100 µM (inactive). For the same compound, the GI50 (HCC 2998) was > 100 µM (inactive), the GI50 (XF498) was > 100 µM (inactive) and the GI50 (SW-620) was > 100 µM (inactive). For the same compound, the GI50 (SF-539) was > 100 µM (inactive), the GI50 (NCI-H23) was > 100 µM (inactive) and the GI50 (786-0) was > 100 µM (inactive). The GI50 (DLD-1) was > 100 µM (inactive), the GI50 (RPMI-8226) was > 100 µM (inactive) and the GI50 (TK-10) was > 100 µM (inactive). For the same compound, the GI50 (A498) was > 100 µM (inactive), the GI50 (LOX IMVI) was > 100 µM (inactive) and the GI50 (RXF 631) was > 100 µM (inactive). For the same compound, the GI50 (IGROV-1) was > 100 µM (inactive), the GI50 (HOP-62) was > 100 µM (inactive) and the GI50 (K562) was > 100 µM (inactive). The GI50 (EKVX) was > 100 µM (inactive), the GI50 (SF-295) was > 100 µM (inactive) and the GI50 (SN12C) was > 100 µM (inactive). For the same compound, the GI50 (SNB-75) was > 100 µM (inactive), the GI50 (HOP-18) was > 100 µM (inactive) and the GI50 (LXFL 529) was > 100 µM (inactive). For the same compound, the GI50 (Malme-3M) was > 100 µM (inactive), the GI50 (NCI-H460) was > 100 µM (inactive) and the GI50 (OVCAR-3) was > 100 µM (inactive). The GI50 (DMS-114) was > 100 µM (inactive), the GI50 (SK-MEL-28) was > 100 µM (inactive) and the GI50 (U-251) was > 100 µM (inactive). For the same compound, the GI50 (CAKI-1) was > 100 µM (inactive), the GI50 (OVCAR-4) was > 100 µM (inactive) and the GI50 (UACC-62) was > 100 µM (inactive). For the same compound, the GI50 (SK-OV-3) was > 100 µM (inactive), the GI50 (NCI-H522) was > 100 µM (inactive) and the GI50 (OVCAR-5) was > 100 µM (inactive). The GI50 (HCT-15) was over 100 µM, the GI50 (CCRF-CEM) was > 100 µM (inactive) and the GI50 (MOLT-4) was > 100 µM (inactive). The GI50 (KM12) was > 100 µM (inactive) and the GI50 (HOP-92) was > 100 µM (inactive).
